In brackets after ≈: the same amount, converted by molar mass.
What was measured:
[1] = system: RV-1A, RV-2 or Cox A21; assay: Summary of HeLa tissue culture testing against the test viruses; assay type: cell-based, rhinovirus types 1A and 2, Coxsackie A21 virus; settings: for antiviral activity in tissue culture: active on RV-1A and RV-2 at a test concentration equivalent to the cytotoxic concentration
Method: (§1) Monolayered HeLa cells in 16 millimeter (mm) tissue culture dishes were treated with 1 ml of culture medium (Eagles medium supplemented with fetal calf serum) containing subject compound at an appropriate concentration or containing no compound at all. Culture media such as those described herein are more fully described in standard texts, as for example, Kuchler's Biochemical Methods in Cell Culture and Virology, Dowden, Hutchinson and Ross, Inc., Stroudsberg, PA (1977). Following treatment, cells were challenged with 0.05 ml of rhinovirus type 1A (RV-1A), rhinovirus type 2 (RV-2) or Coxsackie A21 virus (Cox A21) in culture medium. Some of the compounds were also tested against rhinovirus type 5 (RV-5), rhinovirus type 8 (RV-8) or rhinovirus type 64 (RV-64). Cell controls received no viruses.

[2] = Cytotoxicity in tissue culture testing (HeLa monolayers); assay type: cell-based; settings: human; HeLa cells; observed at 48 and 72 hours post-treatment; read-out: Cytotoxicity: concentration of the compound found to be toxic to the cell
Procedure, shortened: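 HeLa monolayers treated with compound in Eagle's medium with fetal calf serum, then challenged with rhinovirus (RV-1A, RV-2, some RV-5, RV-8, RV-64) or Coxsackie A21. Untreated and virus-free cell controls included.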

[3] = system: rhinovirus type 1A (RV-1A); assay: Tissue culture testing, rhinovirus type 1A in HeLa cells; assay type: cell-based; settings: Enterovirus, 48 and 72 hours, NA = not active at the standard test conditions, read-out: RV-1A: lowest concentration of the compound necessary to cause a 50 percent reduction in cytopathic effect
Procedure, shortened: (§2)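 HeLa monolayers, compound in Eagle's medium + fetal calf serum, then virus challenge; no-compound and no-virus controls. Value = lowest active concentration, μg/ml.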

[4] = system: rhinovirus type 2 (RV-2); assay: Tissue culture testing, rhinovirus type 2 in HeLa cells; assay type: cell-based; settings: Enterovirus, 48 and 72 hours, NA = not active at the standard test conditions, read-out: RV-2: lowest concentration of the compound necessary to cause a 50 percent reduction in cytopathic effect
Procedure, shortened: as §2

[5] = system: Coxsackie A21 virus (Cox A21); assay: Tissue culture testing, Coxsackie A21 virus in HeLa cells; assay type: cell-based; settings: 48 and 72 hours, NA = not active at the standard test conditions, read-out: Cox A21: lowest concentration of the compound necessary to cause a 50 percent reduction in cytopathic effect
Procedure, shortened: as §2

[6] = system: rhinovirus type 5 (RV-5); assay: Tissue culture testing, rhinovirus type 5 in HeLa cells; assay type: cell-based; settings: Enterovirus, 48 and 72 hours, NA = not active at the standard test conditions, read-out: RV-5: lowest concentration of the compound necessary to cause a 50 percent reduction in cytopathic effect
Method: as §1
(§3) ^2 Lowest concentration of the compound (μg/ml) necessary to cause

[7] = system: rhinovirus type 8 (RV-8); assay: Tissue culture testing, rhinovirus type 8 in HeLa cells; assay type: cell-based; settings: Enterovirus, 48 and 72 hours, NA = not active at the standard test conditions, read-out: RV-8: lowest concentration of the compound necessary to cause a 50 percent reduction in cytopathic effect
Method: as §1, §3

[8] = system: rhinovirus type 64 (RV-64); assay: Tissue culture testing, rhinovirus type 64 in HeLa cells; assay type: cell-based; settings: Enterovirus, 48 and 72 hours, NA = not active at the standard test conditions, read-out: RV-64: lowest concentration of the compound necessary to cause a 50 percent reduction in cytopathic effect
Method: as §1, §3

[9] = system: Cox A21; assay: Single Oral Dose test in mice challenged IP with Cox A21; assay type: in vivo, Swiss male mice; settings: 600 mg/kg P.O. 3 h after IP challenge; >3.84 significant (95% confidence level)
Method: In addition, some of the compounds were tested in animals utilizing the following procedure, hereinafter referred to as the "Single Oral Dose" test. Swiss male mice, 8-12 grams in weight were challenged intraperitoneally (IP) with 0.2 ml of a normally lethal dose, i.e., a virus dose sufficient to cause […].80-100% mortality in infected animals within 10 days of challenge of Cox A21, in phosphate buffered saline containing 1% heat inactivated fetal calf serum. Three hours later mice were treated orally (P.O.) with 0.2 ml of compound suspended in 0.5% hydroxypropyl methylcellulose (Methocel) or with 0.2 ml of 0.5% Methocel containing no compound. […] Mice were observed daily for 7-10 days post-challenge and deaths recorded. A modified Mantel-Haenzel combined chi-square procedure was used to determine significant difference between virus control and treated groups. Chi-square values greater than 3.84 are considered significant (95% confidence level) in this test.

[10] = system: Coxsackie A21 virus; assay: Continuous Oral Feeding test in mice challenged IP with Coxsackie A21 virus; assay type: in vivo; settings: po, 0.06 % in diet, 240 h
Procedure, shortened: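 Mice (8 to 12 g) fed rodent chow containing 0.06% (weight percent) test compound from day 0, challenged IP on day 1 with 0.2 ml HeLa-grown virus at a dose giving 80 to 100% deaths within 10 days. Deaths recorded over 10 days versus controls; chi-square test, values >3.84 taken as active (95% confidence).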

[11] = system: Hanks Untyped; assay: Inhibition of cytopathic effect in WI-38 cell culture tubes, Hanks Untyped; assay type: cell-based, rhinovirus; settings: Enterovirus; 25 μg/ml; WI-38 cells; read-out: Inhibition grade, Hanks Untyped
Method: (§4) The test compound was dissolved in an appropriate solvent (generally dimethyl sulfoxide) and incubated at 56° C. for at least 15 minutes and this solution was then used to prepare various test solutions having the desired concentration of test compound in preheated WI maintenance medium (49% Eagles, 49% medium 199, 2% fetal calf serum and antibiotics).
(§5) Triplicate cell culture tubes (WI-38 human embryonic lung cell culture tubes) were fed with 1 ml of medium containing the compound at specified concentrations and inoculated with 3-300 TCID50 (3-300 times the tissue culture infective dose 50, i.e., the dose required to infect 50% of the cell cultures tested). Simultaneous viral titrations were performed. The tissue cultures were supplemented with fresh medium when necessary (around 3-4 days) until viral titrations were completed.
(§6) The cell culture tubes were examined dialy for cytopathic effect. […] Comparisons were made at that time with the percentage of cell sheet destruction in tubes containing virus compound mixtures. Observed differences of 75% or more were graded "+", 74-50% as "±", and less than 50% as "-" inhibition.

[12] = system: Rhinovirus Type 4; assay: Inhibition of cytopathic effect in WI-38 cell culture tubes, rhinovirus type 4; assay type: cell-based; settings: Enterovirus; 25 μg/ml; WI-38 cells; read-out: Inhibition grade, Rhinovirus Type 4
Method: as §4, §5, §6

[13] = system: Rhinovirus Type 6; assay: Inhibition of cytopathic effect in WI-38 cell culture tubes, rhinovirus type 6; assay type: cell-based; settings: Enterovirus; 25 μg/ml; WI-38 cells; read-out: Inhibition grade, Rhinovirus Type 6
Method: as §4, §5, §6

[14] = system: Rhinovirus Type 8; assay: Inhibition of cytopathic effect in WI-38 cell culture tubes, rhinovirus type 8; assay type: cell-based; settings: Enterovirus; 25 μg/ml; WI-38 cells; read-out: Inhibition grade, Rhinovirus Type 8
Method: as §4, §5, §6

[15] = system: Rhinovirus Type 10; assay: Inhibition of cytopathic effect in WI-38 cell culture tubes, rhinovirus type 10; assay type: cell-based; settings: Enterovirus; 25 μg/ml; WI-38 cells; read-out: Inhibition grade, Rhinovirus Type 10
Method: as §4, §5, §6

[16] = system: Rhinovirus Type 13; assay: Inhibition of cytopathic effect in WI-38 cell culture tubes, rhinovirus type 13; assay type: cell-based; settings: Enterovirus; 25 μg/ml; WI-38 cells; read-out: Inhibition grade, Rhinovirus Type 13
Method: as §4, §5, §6

[17] = system: Rhinovirus Type 17; assay: Inhibition of cytopathic effect in WI-38 cell culture tubes, rhinovirus type 17; assay type: cell-based; settings: Enterovirus; 25 μg/ml; WI-38 cells; read-out: Inhibition grade, Rhinovirus Type 17
Method: as §4, §5, §6

[18] = system: Rhinovirus Type 19; assay: Inhibition of cytopathic effect in WI-38 cell culture tubes, rhinovirus type 19; assay type: cell-based; settings: Enterovirus; 25 μg/ml; WI-38 cells; read-out: Inhibition grade, Rhinovirus Type 19
Method: as §4, §5, §6

[19] = system: Rhinovirus Type 21; assay: Inhibition of cytopathic effect in WI-38 cell culture tubes, rhinovirus type 21; assay type: cell-based; settings: Enterovirus; 25 μg/ml; WI-38 cells; read-out: Inhibition grade, Rhinovirus Type 21
Method: as §4, §5, §6

[20] = system: Rhinovirus Type 29; assay: Inhibition of cytopathic effect in WI-38 cell culture tubes, rhinovirus type 29; assay type: cell-based; settings: Enterovirus; 25 μg/ml; WI-38 cells; read-out: Inhibition grade, Rhinovirus Type 29
Method: as §4, §5, §6

[21] = system: Rhinovirus Type 39; assay: Inhibition of cytopathic effect in WI-38 cell culture tubes, rhinovirus type 39; assay type: cell-based; settings: Enterovirus; 25 μg/ml; WI-38 cells; read-out: Inhibition grade, Rhinovirus Type 39
Method: as §4, §5, §6

[22] = system: Rhinovirus Type 56; assay: Inhibition of cytopathic effect in WI-38 cell culture tubes, rhinovirus type 56; assay type: cell-based; settings: Enterovirus; 25 μg/ml; WI-38 cells; read-out: Inhibition grade, Rhinovirus Type 56
Method: as §4, §5, §6

[23] = system: Rhinovirus Type 58; assay: Inhibition of cytopathic effect in WI-38 cell culture tubes, rhinovirus type 58; assay type: cell-based; settings: Enterovirus; 25 μg/ml; WI-38 cells; read-out: Inhibition grade, Rhinovirus Type 58
Method: as §4, §5, §6

[24] = system: Rhinovirus Type 59; assay: Inhibition of cytopathic effect in WI-38 cell culture tubes, rhinovirus type 59; assay type: cell-based; settings: Enterovirus; 25 μg/ml; WI-38 cells; read-out: Inhibition grade, Rhinovirus Type 59
Method: as §4, §5, §6

[25] = system: Rhinovirus Type 60; assay: Inhibition of cytopathic effect in WI-38 cell culture tubes, rhinovirus type 60; assay type: cell-based; settings: Enterovirus; 25 μg/ml; WI-38 cells; read-out: Inhibition grade, Rhinovirus Type 60
Method: as §4, §5, §6

[26] = system: Rhinovirus Type 64; assay: Inhibition of cytopathic effect in WI-38 cell culture tubes, rhinovirus type 64; assay type: cell-based; settings: Enterovirus; 25 μg/ml; WI-38 cells; read-out: Inhibition grade, Rhinovirus Type 64
Method: as §4, §5, §6

[27] = system: Rhinovirus Type 68; assay: Inhibition of cytopathic effect in WI-38 cell culture tubes, rhinovirus type 68; assay type: cell-based; settings: Enterovirus; 25 μg/ml; WI-38 cells; read-out: Inhibition grade, Rhinovirus Type 68
Method: as §4, §5, §6

[28] = system: Rhinovirus Type 74; assay: Inhibition of cytopathic effect in WI-38 cell culture tubes, rhinovirus type 74; assay type: cell-based; settings: Enterovirus; 25 μg/ml; WI-38 cells; read-out: Inhibition grade, Rhinovirus Type 74
Method: as §4, §5, §6

[29] = system: Rhinovirus Type 75; assay: Inhibition of cytopathic effect in WI-38 cell culture tubes, rhinovirus type 75; assay type: cell-based; settings: Enterovirus; 25 μg/ml; WI-38 cells; read-out: Inhibition grade, Rhinovirus Type 75
Method: as §4, §5, §6

[30] = system: Rhinovirus Type 81; assay: Inhibition of cytopathic effect in WI-38 cell culture tubes, rhinovirus type 81; assay type: cell-based; settings: Enterovirus; 25 μg/ml; WI-38 cells; read-out: Inhibition grade, Rhinovirus Type 81
Method: as §4, §5, §6

| SMILES | antiviral activity in tissue culture [1] | MCC [2] [µg/mL] | EC50 [3] [µg/mL] | EC50 [4] [µg/mL] | EC50 [5] [µg/mL] | EC50 [6] [µg/mL] | EC50 [7] [µg/mL] | Single Oral Dose X^2 (chi-square, deaths vs virus control) [9] | Continuous Oral Feeding X^2 (chi-square, deaths vs control) [10] | further results |
| --- | --- | --- | --- | --- | --- | --- | --- | --- | --- | --- |
| CCS(=O)(=O)c1cccnc1Oc1ccc(Cl)c(Cl)c1 [2-(3,4-dichlorophenoxy)-3-(ethylsulfonyl)pyridine] | only marginally active |  |  |  |  |  |  |  |  |  |
| CS(=O)(=O)c1cccc(Oc2ccc(Br)cc2)n1 [2-(4-bromophenoxy)-6-(methylsulfonyl)pyridine] | only marginally active |  |  |  |  |  |  |  |  |  |
| CS(=O)(=O)c1ccc(Oc2ccc(C#N)cc2)nc1 [Example 30, 4-((5-(methylsulfonyl)-2-pyridinyl)oxy)benzonitrile] |  | > 100 | 50 (≈ 182 µM) | 50 (≈ 182 µM) | 6.25 (≈ 22.8 µM) | 50 (≈ 182 µM) | 25 (≈ 91.1 µM) | 30.960 | 24.144 | EC50 [8]: 25 µg/mL (≈ 91.1 µM) |
| CS(=O)(=O)c1ccc(Oc2ccc(Cl)c(Cl)c2)nc1 [Example 40, 2-(3,4-dichlorophenoxy)-5-(methylsulfonyl)pyridine] |  | 50 | ≤ 0.31 | 0.625 (≈ 1.96 µM) | ≤ 6.25 | 25 (≈ 78.6 µM) | ~12.5 (≈ 39.3 µM) | 22.807 |  | inhibition at 25 µg/mL [11]: ≥ 75%; inhibition at 25 µg/mL [12]: < 50%; inhibition at 25 µg/mL [13]: < 50%; inhibition at 25 µg/mL [14]: < 50%; inhibition at 25 µg/mL [15]: ≥ 75%; inhibition at 25 µg/mL [16]: ≥ 75%; inhibition at 25 µg/mL [17]: ≥ 75%; inhibition at 25 µg/mL [18]: ≥ 75%; inhibition at 25 µg/mL [19]: ≥ 75%; inhibition at 25 µg/mL [20]: ≥ 75%; inhibition at 25 µg/mL [21]: ≥ 75%; inhibition at 25 µg/mL [22]: ≥ 75%; inhibition at 25 µg/mL [23]: ≥ 75%; inhibition at 25 µg/mL [24]: 50 to 74%; inhibition at 25 µg/mL [25]: 50 to 74%; inhibition at 25 µg/mL [26]: ≥ 75%; inhibition at 25 µg/mL [27]: ≥ 75%; inhibition at 25 µg/mL [28]: ≥ 75%; inhibition at 25 µg/mL [29]: < 50%; inhibition at 25 µg/mL [30]: ≥ 75% |
| CC(C)S(=O)(=O)c1ccc(Oc2ccc(C(=O)c3ccccc3)cc2)nc1 [Example 51] |  | 4 | 4 (≈ 10.5 µM) | 2 (≈ 5.24 µM) |  |  |  | 3.085 | 17.705 | antiviral activity in initial tissue culture testing ([1]; initial test): did not show activity against the test viruses; antiviral activity on retest ([1]; retest (data in Table 3), RV-1A and RV-2): did show activity against RV-1A and RV-2 |
| CCS(=O)(=O)c1cccnc1Oc1ccc(C(=O)c2ccccc2)cc1 [Example 74] | only marginally active | 50 | 50 (≈ 136 µM) | ~50 (≈ 136 µM) |  |  |  |  |  |  |
